Data: US9527830B2 (Merck Sharp & Dohme Corp., priority 2011, dated 2016)

These molecules were tested against T1, hROMK1 (Kir1.1) (Homo sapiens, UniProt P48048) (assay: ^86Rb^+ Efflux Assay). Conditions: CHO-DHFR- cells stably expressing hROMK1; potency ranges.
T1 construct: expressed in transfected cells
T1 sequence (P48048 1-391): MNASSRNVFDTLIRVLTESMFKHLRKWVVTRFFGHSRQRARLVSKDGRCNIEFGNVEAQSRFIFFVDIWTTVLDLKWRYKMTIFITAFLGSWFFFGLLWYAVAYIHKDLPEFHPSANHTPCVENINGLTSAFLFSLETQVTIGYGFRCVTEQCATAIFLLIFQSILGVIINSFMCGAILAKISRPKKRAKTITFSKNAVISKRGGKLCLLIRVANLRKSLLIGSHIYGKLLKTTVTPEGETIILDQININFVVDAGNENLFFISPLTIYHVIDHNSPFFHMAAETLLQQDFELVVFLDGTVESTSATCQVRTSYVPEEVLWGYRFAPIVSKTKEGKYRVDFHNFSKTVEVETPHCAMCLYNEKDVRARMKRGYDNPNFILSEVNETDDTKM
Assay type: cell-based
Protocol: Several assays may be used to measure functional inhibition of the ROMK channel by compounds of the instant invention. One primary assay that can be used is a functional ^86Rb^+ efflux assay that measures the ability of ROMK to permeate ^86Rb^+, in the absence or presence of test compound. Under control conditions, cells loaded with ^86Rb^+ and incubated in Rb^+-free medium display a time-dependent efflux of the isotope, the rate of which depends on number of functional channels. When cells are incubated in the presence of a channel inhibitor, efflux of ^86Rb^+ is prevented in a concentration-dependent manner, and IC50 values of inhibition by compounds can be accurately determined. This assay has been established with cell lines expressing either human, rat or dog ROMK channels, and can operate in 96- or 384-well format. Importantly, the human, rat, and dog ^86Rb^+ efflux assays can be carried out in the presence of up to 100% serum allowing, therefore, an accurate estimation of the effect of protein binding on the inhibitory activity of compounds of interest. Another ROMK functional assay makes use of the ability of thallium to permeate through open ROMK channels and increase the fluorescence of a dye previously loaded into the cells. Under control conditions, cells loaded with dye and exposed to thallium-containing medium display a time-dependent increase in fluorescence, the rate of which depends on number of functional channels. When cells are incubated in the presence of a channel inhibitor, the increase in fluorescence is attenuated in a concentration-dependent manner, and IC50 values of inhibition by compounds can be accurately determined. This assay has been established with cell lines expressing either human, or rat ROMK channels, and operates in 384-well format. Another assay for evaluation of the compounds of the instant invention and for evaluation of mechanism of action of compounds of Formula I relies on the measurement of the electrical current that is generated as potassium permeates through the channel. For these electrophysiological experiments, three different platforms, IonWorks, QPatch, or manual patch clamp, are used, depending on the experimental protocol under consideration. IonWorks operates in a 384-well format and allows accurate determination of IC50 values for inhibitors.
CHO-DHFR-cells stably expressing hROMK1 (Kir1.1) were grown at 37° C. in a 10% CO2 humidified incubator in Iscove's Modified Dulbecco's Medium (Gibco 12440) supplemented with HT Supplement, Penicillin/Streptomycin/Glutamine, G418 (500 μg/ml) and 10% FBS. Cells were seeded in Sterile and Tissue Culture Treated Packard CulturPlate White Opaque Microplates at a concentration of 5.0E5-7.0E5 cells/ml—PerkinElmer 6005680 (96-well); Corning 3707 (384 well) in complete media containing 1.5 μCi/ml Rubidium-86. Cells were incubated in 37° C.-10% CO2 incubator overnight. On the day of the experiment, the media was removed and cells washed with low K assay buffer. ^86Rb^+ efflux was initiated after addition of assay buffer±test compound followed by 35 min incubation at room temperature. ROMK-sensitive component of efflux was defined in the presence of 10 mM BaCl2. Assay buffer was removed and transferred to a plate and cells were solubilized in the presence of SDS. Radioactivity associated with assay and cell plate was determined.
• 1. Removed cell media and washed cells with low K assay buffer (126.9 mM NaCl, 4.6 mM KCl, 2 mM CaCl2, 1 mM MgCl2, 10 mM Hepes/NaOH; pH 7.4) • 200 μl for 96-well plate; 70 μl for 384-well plate • 2. Added assay buffer (121.5 mM NaCl, 10 mM KCl, 2 mM CaCl2, 1 mM MgCl2, 10 mM Hepes/NaOH; pH 7.4)±test compound to cells • 100 μl for 96-well plate; 50 μl for 384-well plate • 3. Incubated at ambient temperature (22-24° C.) for 35 min • 4.

SMILES	IC50 [nM]
N#Cc1cc(/C=C/C2CCN(C(=O)Cc3ccc4c(c3)COC4=O)CC2)ccc1F [Example 48, 2-Fluoro-5-[(E)-2-{1-[(1-oxo-1,3-dihydro-2-benzofuran-5-yl)acetyl]piperidin-4-yl}ethenyl]benzonitrile]	≤ 500
O=C1OCc2cc(CCC3CCN(C(=O)Cc4ccc5c(c4)COC5=O)CC3)ccc21 [Example 50, 5-(2-{1-[(1-Oxo-1,3-dihydro-2-benzofuran-5-yl)acetyl]piperidin-4-yl}ethyl)-2-benzofuran-1(3H)-one]	≤ 500
O=C1OCc2cc(SC3CCN(C(=O)Cc4ccc(-n5cnnn5)cc4)CC3)ccc21 [Example 51, 5-[(1-{[4-(1H-Tetrazol-1-yl)phenyl]acetyl}piperidin-4-yl)sulfanyl]-2-benzofuran-1(3H)-one]	≤ 500
COc1cc(CC(=O)N2CCC(/C=C/c3ccc4c(c3)COC4=O)CC2)ccc1C#N [Example 52, 2-Methoxy-4-(2-oxo-2-(4-[(E)-2-(1-oxo-1,3-dihydro-2-benzofuran-5-yl)ethenyl]piperidin-1-yl}ethyl]benzonitrile]	≤ 500
COc1cc(CC(=O)N2CCC(CCc3ccc4c(c3)COC4=O)CC2)ccc1C#N [Example 53, 2-Methoxy-4-(2-oxo-2-(4-[2-(1-oxo-1,3-dihydro-2-benzofuran-5-yl)ethyl]piperidin-1-yl}ethyl]benzonitrile]	≤ 500
O=C1OCc2cc(OCC3CCN(C(=O)Cc4ccc(-n5cnnn5)cc4)CC3)ccc21 [Example 55, 5-[(1-{[4-(1H-Tetrazol-1-yl)phenyl]acetyl}piperidin-4-yl)methoxy]-2-benzofuran-1(3H)-one]	≤ 200
COc1cc(CC(=O)N2CCC(CCc3ccc4c(c3)COC4=O)CC2)c(F)cc1C#N [Example 56, 5-Fluoro-2-methoxy-4-(2-oxo-2-{4-[2-(1-oxo-1,3-dihydro-2-benzofuran-5-yl)ethyl]piperidin-1-yl}ethyl)benzonitrile]	≤ 500
O=C1OCc2c1ccc(CCC1CCN(C(=O)Cc3ccc(-n4cnnn4)cc3)CC1)c2F [Example 57, 4-Fluoro-5-[2-(1-{[4-(1H-tetrazol-1-yl)phenyl]acetyl}piperidin-4-yl)ethyl]-2-benzofuran-1(3H)-one]	≤ 200
O=C1OCc2c1ccc(CCC1CCN(C(=O)Cc3ccc(-n4cnnn4)cc3)CC1)c2Br [Example 59, 4-Bromo-5-[2-(1-{[4-(1H-tetrazol-1-yl)phenyl]acetyl}piperidin-4-yl)ethyl]-2-benzofuran-1(3H)-one]	≤ 200
N#Cc1ccc(CC(=O)N2CCC(CCc3ccc4c(c3)COC4=O)CC2)cc1Br [Example 64, 2-Bromo-4-[2-oxo-2-[4-[2-(1-oxo-3H-isobenzofuran-5-yl)ethyl]-1-piperidyl]ethyl]benzonitrile]	≤ 500
O=C1OCCc2cc(CCC3CCN(C(=O)Cc4ccc(-n5cnnn5)cc4)CC3)ccc21 [Example 65, 6-[2-(1-{[4-(1H-tetrazol-1-yl)phenyl]acetyl}piperidin-4-yl)ethyl]-3,4-dihydro-1H-isochromen-1-one]	≤ 200
O=C1OCCc2cc(CCC3CCN(C(=O)C4CCc5cc(-n6cnnn6)ccc54)CC3)ccc21 (stereo not shown) [Example 66]	≤ 200
COc1cc(CC(=O)N2CCC(CCc3ccc4c(c3)CCOC4=O)CC2)c(F)cc1C#N [Example 67, 5-Fluoro-2-methoxy-4-(2-oxo-2-{4-[2-(1-oxo-3,4-dihydro-1H-isochromen-6-yl)ethyl]piperidin-1-yl}ethyl)benzonitrile]	≤ 500
O=C1OCc2c1ccc(/C=C/C1CCN(C(=O)Cc3ccc(-n4cnnn4)cc3)CC1)c2Br [Example 68, 4-Bromo-5-[(E)-2-(1-{[4-(1H-tetrazol-1-yl)phenyl]acetyl}piperidin-4-yl)ethenyl]-2-benzofuran-1(3H)-one]	≤ 500
COc1cc(C#N)c(F)cc1CC(=O)N1CCC(CCc2ccc3c(c2)COC3=O)CC1 [Example 70, 2-Fluoro-5-methoxy-4-(2-oxo-2-{4-[2-(1-oxo-1,3-dihydro-2-benzofuran-5-yl)ethyl]piperidin-1-yl}ethyl)benzonitrile]	≤ 200
COc1cc(CCN2CCC(CCc3ccc4c(c3)COC4=O)CC2)ccc1C#N [Example 71, 2-Methoxy-4-(2-{4-[2-(1-oxo-1,3-dihydro-2-benzofuran-5-yl)ethyl]piperidin-1-yl}ethyl)benzonitrile]	≤ 200
O=C1OCc2cc(CCC3CCN(C(=O)C4CCc5cc(-n6cnnn6)ccc54)CC3)ccc21 (stereo not shown) [Example 72, 5-[2(1-{[5(1H-Tetrazol-1-yl)-2,3-dihydro-1H-inden-yl]carbonyl}piperidin-4-yl)ethyl]-2-benzofuran-1(3H)-one]	≤ 200
CC1Cc2cc(/C=C/C3CCN(C(=O)Cc4ccc(-n5cnnn5)cc4)CC3)ccc2C(=O)O1 (stereo not shown) [Example 79, 3-Methyl-6-[(E)-2-(1-{[4-(1H-tetrazol-1-yl)phenyl]acetyl}piperidin-4-yl)ethenyl]-3,4-dihydro-1H-isochromen-1-one]	≤ 200
CC1Cc2cc(CCC3CCN(C(=O)Cc4ccc(-n5cnnn5)cc4)CC3)ccc2C(=O)O1 (stereo not shown) [Example 80, 3-Methyl-6-[2-(1-{[4-(1H-tetrazol-1-yl)phenyl]acetyl}piperidin-4-yl)ethyl]-3,4-dihydro-1H-isochromen-1-one]	≤ 200
CN(C)C1(CCc2ccc(F)c(C#N)c2)CCN(C(=O)Cc2ccc(-n3cnnn3)cc2)CC1 [Example 82, 5-{2-[4-(Dimethylamino)-1-{[4-(1H-tetrazol-1-yl)phenyl]acetyl}piperidin-4-yl]ethyl}-2-fluorobenzonitrile]	≤ 500
Cc1cc(/C=C/C2CCN(CCc3ccc4c(c3)COC4=O)CC2)ccc1C#N [Example 83]	≤ 200
N#Cc1ccc(/C=C/C2CCN(CCc3ccc4c(c3)COC4=O)CC2)cc1 [Example 84, 4-[(E)-2-{1-[2-(1-Oxo-1,3-dihydro-2-benzofuran-5-yl)ethyl]piperidin-4-yl}ethenyl]benzonitrile]	≤ 500
